In test [1] the test system is IL-6. Nature of the test: IL-6 secretion by human macrophages. It counts as cell-based. Conditions: Macrophage, 10^-5 M, read-out: Suppression of IL-6 secretion. The source says: It has also been observed that pentamidine (10^-5 M) blocks the secretion of tumor necrosis factor in rat macrophages (42 units/ml - pentamidine vs. 82 units/ml - control), as well as tumor necrosis factor and IL-6 in human macrophages, where at a concentration of 10^-5 M pentamidine, tumor necrosis factor and IL-6 secretion are suppressed >50%. These additional cytokines are also very influential mediators in inflammatory diseases.

Test [2] deals with IL-1α. In words: Western blot analysis of cell associated IL-1α. It counts as cell-based, rat. Conditions: 10 μM pentamidine, LPS, 24 h, FIG. 3. The method, then: To determine the effect of pentamidine on cellular stores of IL-1, intracellular levels of IL-1 were quantitated by incubating cells with and without 10 μM pentamidine and LPS for 24 hours. At the end of this incubation period, the cells were washed, lysed and the total cellular protein was collected for Western blot analysis. […] This is in agreement with the generally accepted existence of a precursor form of IL-1 with a molecular weight in the range of 31-33 kD (J. Giri et al., J. Immunol. 134, 343 (1985)).
Cells (4×10^6 cells) were oultured with pentamidine (10μM) or dexamethasone (1μM) in media with 10% fetal calf serum (FCS) in the presence or absence of LPS (1 μg/ml) for 24 hours. The cells were washed twice in HBSS and then scraped in homogenizing buffer (HBSS containing 0.1 mM EGTA, 1 mM pmsf, 10 μg/ml leupeptin, 1 KIU/ml aprotinin, pH 7.4). The cell suspension was left on ice for 10 minutes at which time the swollen cells were disrupted by sonication. The nuclei and undisrupted cells were pelleted by centrifugation at 800 rpm for 10 minutes and were discarded. The supernatant was centrifugated at 39,000 rpm for 1 hour at 4° C. After centrifugation, the supernatants containing cytosolic components of the cell was carefully removed and was used as the cytosol fraction. […] Molecular weight references were determined by running one lane with pre-stained molecular weight standards.

The subject of test [3] is IL-1. In words: IL-1 release from alveolar macrophages (thymocyte co-stimulation bioassay). It counts as cell-based, rat. The note with it: 24 h after LPS (5 ng/ml), FIG. 1a. The method, then:
Pulmonary alveolar macrophages were collected by lavaging the lungs as previously described (D. B. Warheit et al., Am. Rev. Resp. Dis. 134, 128 (1986)). Once washed and resuspended, the macrophages were allowed to adhere to plastic plates in serum free RPMI 1640 containing 25 mM Hepes, 2 mM L-glutamine, 50 μg/ml gentamicin and streptomycin (media). Following adherence for 1 hour at 37° C. in 5% CO2, the plates were washed once with warm media to remove nonadherent cells, cells were resuspended in media with 10% FCS and treated with or without pentamidine at the indicated concentration and LPS (5 ng/ml) for 24 hours). IL-1 activity was assayed using a thymocyte co-stimulation assay (S. B. Mizel in Methods in Macrophage Biology, Editors, Herscowitz and Holden (1981)). Single cell thymocyte suspension from B6C3F1 mice (female, 5-9 weeks old) at a concentration of 2.0×10^7 /ml in media containing 10% FCS, and 2.5×10^-5 M 2-β mercaptoethanol were added in 50 μl aliquots to each well of flat bottom microtiter plates along with 50 μl of PHA at 2.5 μg/ml. Serial dilution of supernatants or cells were made in media with 10% FCS and added in 100 μl aliquots. IL-1 activity was measured by quantifying the uptake of 3Hthymidine during the last 6 hours of a 72 hour culture at 37° C. and 5% CO2. Cells were harvested onto glass fiber filters and filter associated radioactivity counted in a scintillation counter.
In vitro studies were performed by taking alveolar macrophages from normal healthy rat lungs and culturing them in the presence of an imidazoline with the inducer lipopolysaccharide for 24 hours. The standard bioassay for IL-1 was performed (see above).

Test [4] has as its system membrane IL-1. Nature of the test: Effect on membrane IL-1 (mIL-1 bioassay). It counts as cell-based, rat. Conditions: LPS 5 ng/ml, 24 h, FIG. 4. The method, then:
Membrane IL-1 was assayed as previously described (E. A. Kurt-Jones et al, Proc. Natl. Acad. Sci. USA, 82, 1204 (1985)). 10^5 cells were cultured in media and 10% FCS with or without pentamidine at varying concentrations and LPS at 5 ng/ml for 24 hours and then fixed to the bottom of the 96 well plates with paraformaldehyde. The IL-1 bioassay was then performed as described in Example 1.

The structures appear in SMILES notation. Entries after “also recorded” stand apart in the source; their conditions may differ.

As to `N=C(N)c1ccc(OCCCCCOc2ccc(C(=N)N)cc2)cc1` [Pentamidine, 1,5-bis(4-amidinophenoxy)pentane], in test [1], the inhibition at 10 µM is more than 50%. The “Cell associated IL-1α (Western blot)” value in test [2] is on record as “allows proper translation of the protein; also recorded: antiserum to murine IL-1α bound to a protein that migrated to approximately 31 kD”. In addition, in test [3], the IL-1 release result is on record as “decreased in a concentration dependant manner; also recorded: decreased in a concentration dependent manner”. In addition, in test [4], the “Amount of bioactive membrane IL-1 (mIL-1)” value is listed as “increased in a dose related manner”.
